target: human FP receptor (Homo sapiens (Human), UniProt P43088); assay: In vitro test of inhibition of human FP receptor activity (PGF2α-induced calcium flux in FP-expressing CHEM1 cells); assay type: cell-based; conditions: PGF2α-induced (3 nM) calcium flux, some as mean values from multiple independent determinations
Text: • CRTH2 chemoattractant receptor-homologous molecule expressed on T helper type 2 cells • DMEM Dulbecco's modified Eagle's medium • DMSO dimethyl sulfoxide • DP PGD2 receptor • EC50 half-maximum effective concentration • Em emission • EP PGE2 receptor • Ex excitation • from Company (source) • FCS fetal calf serum • FP PGF2α receptor • HEPES 2-[4-(2-hydroxyethyl)piperazin-1-yl]ethanesulfonic acid • IC50 half-maximum inhibitory concentration • IP PGI2 receptor • MES 2-(N-morpholino)ethanesulfonic acid • Pen/Strep penicillin/streptomycin • PGD2 prostaglandin D2 • PGE2 prostaglandin E2 • PGF2α prostaglandin F2α • PGI2 prostaglandin I2 • TC tissue culture • TP thromboxane A2 receptor • Tris tris(hydroxymethyl)aminomethane • v/v volume to volume ratio (of a solution) • w/w weight to weight ratio (of a solution) B-1. In Vitro Test of Inhibition of Human FP Receptor Activity
For the characterization of test substances in respect of FP antagonism, PGF2α-induced calcium flux in FP-expressing CHEM1 cells (Millipore, HTS093C) was used.
Prior to the measurement, the medium is replaced by 30 μl of Fluo-8 AM loading buffer [calcium-free Tyrode (130 mM NaCl, 5 mM KCl, 20 mM HEPES, 1 mM MgCl2, 4.8 mM NaHCO3, pH 7.4), 2 mM CaCl2, 1× SmartBlock (from CANDOR Bioscience GmbH), 4.5 mM Probenecid, 5 μM Fluo-8 AM, 0.016% Pluronic®, 0.04% Brilliant black] and incubated at 37° C./5% CO2 for 30 minutes. […] 10 μl of the prediluted substance solution are added to the Fluo-8-laden cells and incubated at 37° C./5% CO2 for 10 minutes. The FP receptor is activated by adding 20 μl of 3 nM (final concentration) PGF2α in calcium-free Tyrode/2 mM CaCl2/0.04% Brilliant black, and the calcium flux is determined by measuring the fluorescence at ex. 470 nm/[…].
Table 1 below lists the IC50 values from this assay for individual working examples of the invention (some as mean values from multiple independent individual determinations): […]

human FP receptor, sequence (P43088 whole entry): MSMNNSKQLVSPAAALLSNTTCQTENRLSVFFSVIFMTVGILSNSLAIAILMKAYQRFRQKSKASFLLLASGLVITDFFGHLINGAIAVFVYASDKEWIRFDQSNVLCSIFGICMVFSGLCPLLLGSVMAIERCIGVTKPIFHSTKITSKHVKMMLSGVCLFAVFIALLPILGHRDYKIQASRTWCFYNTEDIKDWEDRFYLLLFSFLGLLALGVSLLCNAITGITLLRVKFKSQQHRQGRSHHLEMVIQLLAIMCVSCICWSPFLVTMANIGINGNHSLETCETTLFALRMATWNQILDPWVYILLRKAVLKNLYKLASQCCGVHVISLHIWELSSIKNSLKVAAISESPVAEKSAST

Compared with `Cc1c(-c2ccccc2)nc2ccc(Br)cc2c1C(=O)NC12CCC(C(=O)O)(CC1)C(O)C2` (racemic) [Example 59, 4-{[(6-Bromo-3-methyl-2-phenylquinolin-4-yl)carbonyl]amino}-2-hydroxybicyclo[2.2.2]octane-1-carboxylic acid (racemate)], `Cc1c(-c2ccccc2)nc2ccc(Cl)cc2c1C(=O)NC12CCC(C(=O)O)(CC1)CC2` [Example 2, 4-{[(6-Chloro-3-methyl-2-phenylquinolin-4-yl)carbonyl]amino}bicyclo[2.2.2]octane-1-carboxylic acid] is 1.7-fold lower in IC50: 435 nM for the first, 259 nM for the second.

Compared with `Cc1c(-c2ccccc2)nc2cc(Cl)c(Cl)cc2c1C(=O)NC12CCC(C(=O)O)(CC1)CC2` [Example 3, 4-{[(6,7-Dichloro-3-methyl-2-phenylquinolin-4-yl)carbonyl]amino}bicyclo[2.2.2]octane-1-carboxylic acid], `Cc1c(-c2ccccc2)nc2c(Cl)cc(Cl)cc2c1C(=O)NC12CCC(C(=O)O)(CC1)CC2` [Example 22, 4-{[(6,8-Dichloro-3-methyl-2-phenylquinolin-4-yl)carbonyl]amino}bicyclo[2.2.2]octane-1-carboxylic acid] is 4.8-fold higher in IC50: 142 nM for the first, 677 nM for the second. The first is the more potent here.

Compared with `Cc1c(-c2cccs2)nc2ccc(Br)cc2c1C(=O)NC12CCC(C(=O)O)(CC1)CC2` [Example 5, 4-({[6-Bromo-3-methyl-2-(2-thienyl)quinolin-4-yl]carbonyl}amino)bicyclo[2.2.2]octane-1-carboxylic acid], `Cc1c(-c2ccccc2F)nc2ccc(Br)cc2c1C(=O)NC12CCC(C(=O)O)(CC1)CC2` [Example 6, 4-({[6-Bromo-2-(2-fluorophenyl)-3-methylquinolin-4-yl]carbonyl}amino)bicyclo[2.2.2]octane-1-carboxylic acid] is 2.1-fold higher in IC50: 113 nM for the first, 240 nM for the second. The first is the more potent here.

`Cc1c(-c2cccc(F)c2)nc2ccc(Br)cc2c1C(=O)NC12CCC(C(=O)O)(CC1)CC2` [Example 7, 4-({[6-Bromo-2-(3-fluorophenyl)-3-methylquinolin-4-yl]carbonyl}amino)bicyclo[2.2.2]octane-1-carboxylic acid] and `Cc1c(-c2cccc(Cl)c2)nc2ccc(Br)cc2c1C(=O)NC12CCC(C(=O)O)(CC1)CC2` [Example 11, 4-({[6-Bromo-2-(3-chlorophenyl)-3-methylquinolin-4-yl]carbonyl}amino)bicyclo[2.2.2]octane-1-carboxylic acid] are within 1.5-fold of each other in IC50: 181 nM for the first, 129 nM for the second.

Going from `Cc1c(-c2ccc(F)cc2)nc2ccc(Br)cc2c1C(=O)NC12CCC(C(=O)O)(CC1)CC2` [Example 8, 4-({[6-Bromo-2-(4-fluorophenyl)-3-methylquinolin-4-yl]carbonyl}amino)bicyclo[2.2.2]octane-1-carboxylic acid] to `Cc1c(-c2cc(F)cc(F)c2)nc2ccc(Br)cc2c1C(=O)NC12CCC(C(=O)O)(CC1)CC2` [Example 9, 4-({[6-Bromo-2-(3,5-difluorophenyl)-3-methylquinolin-4-yl]carbonyl}amino)bicyclo[2.2.2]octane-1-carboxylic acid], the IC50 rises from 180 nM to 386 nM (2.1-fold).

`Cc1c(-c2ccccc2Cl)nc2ccc(Br)cc2c1C(=O)NC12CCC(C(=O)O)(CC1)CC2` [Example 10, 4-({[6-Bromo-2-(2-chlorophenyl)-3-methylquinolin-4-yl]carbonyl}amino)bicyclo[2.2.2]octane-1-carboxylic acid] and `Cc1ccccc1-c1nc2ccc(Br)cc2c(C(=O)NC23CCC(C(=O)O)(CC2)CC3)c1C` [Example 24, 4-({[6-Bromo-3-methyl-2-(2-methylphenyl)quinolin-4-yl]carbonyl}amino)bicyclo[2.2.2]octane-1-carboxylic acid] are within 1.5-fold of each other in IC50: 128 nM for the first, 129 nM for the second.

Compared with `O=C(NC12CCC(C(=O)O)(CC1)CC2)c1c(F)c(-c2ccccc2)nc2ccc(Br)cc12` [Example 12, 4-{[(6-Bromo-3-fluoro-2-phenylquinolin-4-yl)carbonyl]amino}bicyclo[2.2.2]octane-1-carboxylic acid], `O=C(NC12CCC(C(=O)O)(CC1)CC2)c1c(Cl)c(-c2ccccc2)nc2ccc(Br)cc12` [Example 30, 4-{[(6-Bromo-3-chloro-2-phenylquinolin-4-yl)carbonyl]amino}bicyclo[2.2.2]octane-1-carboxylic acid] is 2.7-fold lower in IC50: 139 nM for the first, 52 nM for the second.

First: COc1c(-c2ccccc2)nc2ccc(Br)cc2c1C(=O)NC12CCC(C(=O)O)(CC1)CC2 [Example 13, 4-{[(6-Bromo-3-methoxy-2-phenylquinolin-4-yl)carbonyl]amino}bicyclo [2.2.2]octane-1-carboxylic acid]
Second: CSc1c(-c2ccccc2)nc2ccc(Br)cc2c1C(=O)NC12CCC(C(=O)O)(CC1)CC2 [Example 27, 4-({[6-Bromo-3-(methylsulfanyl)-2-phenylquinolin-4-yl]carbonyl}amino)bicyclo[2.2.2]octane-1-carboxylic acid]
The IC50 of the first is 2.1-fold higher: 153 nM for the first, 74 nM for the second. The second is the more potent here.

First: Cc1c(-c2ccccc2)nc2ccc(I)cc2c1C(=O)NC12CCC(C(=O)O)(CC1)CC2 [Example 14, 4-{[(6-Iodo-3-methyl-2-phenylquinolin-4-yl)carbonyl]amino}bicyclo[2.2.2]octane-1-carboxylic acid]
Second: Cc1c(-c2ccccc2)nc2ccc(C(F)F)cc2c1C(=O)NC12CCC(C(=O)O)(CC1)CC2 [Example 18, 4-({[6-(Difluoromethyl)-3-methyl-2-phenylquinolin-4-yl]carbonyl}amino)bicyclo[2.2.2]octane-1-carboxylic acid]
The IC50 of the first is 16-fold lower: 33 nM for the first, 543 nM for the second. The first is the more potent here.

First: Cc1c(-c2ccccc2)nc2ccc(C3CC3)cc2c1C(=O)NC12CCC(C(=O)O)(CC1)CC2 [Example 15, 4-{[(6-Cyclopropyl-3-methyl-2-phenylquinolin-4-yl)carbonyl]amino}bicyclo[2.2.2]octane-1-carboxylic acid]
Second: Cc1c(-c2ccccc2)nc2ccc(C3CCC3)cc2c1C(=O)NC12CCC(C(=O)O)(CC1)CC2 [Example 16, 4-{[(6-Cyclobutyl-3-methyl-2-phenylquinolin-4-yl)carbonyl]amino}bicyclo [2.2.2]octane-1-carboxylic acid]
The IC50 of the first is 1.8-fold lower: 326 nM for the first, 589 nM for the second. The first is the more potent here.

Going from `Cc1c(-c2ccccc2)nc2ccc([Si](C)(C)C)cc2c1C(=O)NC12CCC(C(=O)O)(CC1)CC2` [Example 17, 4-({[3-Methyl-2-phenyl-6-(trimethylsilyl)quinolin-4-yl]carbonyl}amino)bicyclo[2.2.2]octane-1-carboxylic acid] to `Cc1c(-c2ccccc2)nc2ccc(OC(F)(F)F)cc2c1C(=O)NC12CCC(C(=O)O)(CC1)CC2` [Example 19, 4-({[3-Methyl-2-phenyl-6-(trifluoromethoxy)quinolin-4-yl]carbonyl}amino)bicyclo[2.2.2]octane-1-carboxylic acid], the IC50 rises from 214 nM to 917 nM (4.3-fold).

First: Cc1c(-c2ccccc2)nc2ccc(SC(F)(F)F)cc2c1C(=O)NC12CCC(C(=O)O)(CC1)CC2 [Example 20, 4-[({3-Methyl-2-phenyl-6-[(trifluoromethyl)sulfanyl]quinolin-4-yl}carbonyl)amino]bicyclo[2.2.2]octane-1-carboxylic acid]
Second: Cc1cc2nc(-c3ccccc3)c(C)c(C(=O)NC34CCC(C(=O)O)(CC3)CC4)c2cc1C [Example 23]
The IC50 of the first is 1.7-fold higher: 521 nM for the first, 306 nM for the second. The second is the more potent here.

First: Cc1c(-c2ccccc2)nc2c(C)cc(Br)cc2c1C(=O)NC12CCC(C(=O)O)(CC1)CC2 [Example 21, 4-{[(6-Bromo-3,8-dimethyl-2-phenylquinolin-4-yl)carbonyl]amino}bicyclo[2.2.2]octane-1-carboxylic acid]
Second: COc1cccc(-c2nc3ccc(Br)cc3c(C(=O)NC34CCC(C(=O)O)(CC3)CC4)c2C)c1 [Example 26, 4-({[6-Bromo-2-(3-methoxyphenyl)-3-methylquinolin-4-yl]carbonyl}amino)bicyclo[2.2.2]octane-1-carboxylic acid]
The IC50 of the first is 1.9-fold higher: 214 nM for the first, 114 nM for the second.

Compared with `Cc1c(-c2c(F)cccc2F)nc2ccc(Br)cc2c1C(=O)NC12CCC(C(=O)O)(CC1)CC2` [Example 25, 4-({[6-Bromo-2-(2,6-difluorophenyl)-3-methylquinolin-4-yl]carbonyl}amino)bicyclo[2.2.2]octane-1-carboxylic acid], `CCc1c(-c2ccccc2)nc2ccc(Br)cc2c1C(=O)NC12CCC(C(=O)O)(CC1)CC2` [Example 28, 4-{[(6-Bromo-3-ethyl-2-phenylquinolin-4-yl)carbonyl]amino}bicyclo[2.2.2]octane-1-carboxylic acid] is 2.2-fold lower in IC50: 494 nM for the first, 220 nM for the second.

Compared with `O=C(NC12CCC(C(=O)O)(CC1)CC2)c1c(C2CC2)c(-c2ccccc2)nc2ccc(Br)cc12` [Example 29, 4-{[(6-Bromo-3-cyclopropyl-2-phenylquinolin-4-yl)carbonyl]amino}bicyclo[2.2.2]octane-1-carboxylic acid], `CCCc1c(-c2ccccc2)nc2ccc(Br)cc2c1C(=O)NC12CCC(C(=O)O)(CC1)CC2` [Example 31, 4-{[(6-Bromo-2-phenyl-3-propylquinolin-4-yl)carbonyl]amino}bicyclo[2.2.2]octane-1-carboxylic acid] is 6.9-fold higher in IC50: 51 nM for the first, 351 nM for the second.

Source: patent US10117864B2, “Substituted N-bicyclo-2-aryl-quinolin-4-carboxamides and use thereof” (BAYER PHARMA AKTIENGESELLSCHAFT, priority 2015, dated 2018)
